Source: patent US20240368133A1, “Compounds for the Treatment of Pain, in Particular, Neuropathic Pain, and/or Other Diseases or Disorders that are Associated with AT2R and/or AT2R Mediated Signaling” (Confo Therapeutics N.V., priority 2021, published 2024)

Columns and labels:
human AT2R fused to Cb23 = human AT2R fused to Cb23 (Homo sapiens, UniProt P50052); assay: Radioligand binding assay, displacement of 125I-[Sar1, Ile8]-Angiotensin II, hAT2R Cb23; conditions: displacement of 125I-[Sar1, Ile8]-Angiotensin II, human AT2R fused to Cb23, HEK-293 cell membrane preparations; read-out: Binding affinity on hAT2R_Cb23 IC50
human AT2R fused to Cb23, sequence (P50052 whole entry, looked up, the tested form may be a part): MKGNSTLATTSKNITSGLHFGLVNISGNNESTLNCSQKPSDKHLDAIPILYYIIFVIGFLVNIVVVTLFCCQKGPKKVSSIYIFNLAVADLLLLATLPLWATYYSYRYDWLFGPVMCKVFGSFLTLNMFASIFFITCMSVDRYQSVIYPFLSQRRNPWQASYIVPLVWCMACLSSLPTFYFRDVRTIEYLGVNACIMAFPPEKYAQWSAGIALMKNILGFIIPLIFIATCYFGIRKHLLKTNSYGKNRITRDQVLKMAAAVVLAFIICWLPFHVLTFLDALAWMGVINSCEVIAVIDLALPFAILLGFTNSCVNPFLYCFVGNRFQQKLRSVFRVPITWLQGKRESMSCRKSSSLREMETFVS
Summary of the method: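 Membranes from HEK-293 cells expressing human AT2R fused to Cb23 were incubated with 0.05 nM 125I-[Sar1, Ile8]-Angiotensin II in 100 μL buffer (50 mM Tris, 5 mM MgCl2, 1 mM EDTA, 0.1% BSA, pH 7.4) for one hour at 25° C. Ligands were tested as eight-point dose-response curves in duplicate, with C21 and Angiotensin II as references.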

human AT1R = human AT1R (Homo sapiens (Human), UniProt P30556); assay: Counterscreen radioligand binding assay, displacement of 125I-[Sar1, Ile8]-Angiotensin II, hAT1R WT; conditions: for inhibition at 1 µM: read-out: % Displaced radioligand at 1 μM; for inhibition at 10 µM: read-out: % Displaced radioligand at 10 μM; for IC50: HEK-293 cell membranes, read-out: Binding affinity On hAT1R IC50
human AT1R, sequence (P30556 whole entry): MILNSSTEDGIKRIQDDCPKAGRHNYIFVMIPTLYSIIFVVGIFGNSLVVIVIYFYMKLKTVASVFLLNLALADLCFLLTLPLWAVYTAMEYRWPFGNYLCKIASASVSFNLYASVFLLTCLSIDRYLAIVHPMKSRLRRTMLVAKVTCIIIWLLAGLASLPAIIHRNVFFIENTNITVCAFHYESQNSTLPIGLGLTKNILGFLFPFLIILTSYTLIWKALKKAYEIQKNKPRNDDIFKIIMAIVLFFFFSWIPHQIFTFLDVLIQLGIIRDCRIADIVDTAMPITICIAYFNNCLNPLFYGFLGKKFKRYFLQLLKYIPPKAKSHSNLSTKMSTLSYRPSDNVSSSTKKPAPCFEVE
Summary of the method: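 Compounds displaced 0.05 nM 125I-[Sar1, Ile8]-Ang II from human AT1R in HEK-293 membranes (1 h, 25° C; Tris/MgCl2/EDTA/BSA buffer, pH 7.4). Readout was filtration and scintillation counting, with non-specific binding set by 10 μM [Sar1]-Ang II. Values are % displacement at 1 μM and […], or IC50 from eight-point four-parameter fits.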

[1] = 125I-[Sar1, Ile8]-Ang II, compound at 1 μM, semi-quantitative score
[2] = 125I-[Sar1, Ile8]-Ang II, compound at 10 μM, semi-quantitative score

Row | SMILES | IC50 (human AT2R fused to Cb23) [nM] | inhibition at 1 µM (human AT1R; [1]) [%] | inhibition at 10 µM (human AT1R; [2]) [%] | IC50 (human AT1R) [nM] | % Displaced radioligand at 1 μM (human AT1R; [1]) | % Displaced radioligand at 10 μM (human AT1R; [2])
1 | CC(C)Cc1cc(F)c(-c2nn[nH]n2)c(N2CCN(C(=O)c3cccnn3)CC2)c1 [Compound A-213, [4-[3-fluoro-5-isobutyl-2-(2H-tetrazol-5-yl)phenyl]piperazin-1-yl]-pyridazin-3-yl-methanone] | 389 | < 30 | < 30 | – | – | –
2 | CC(C)Cc1cc(F)c(-c2nn[nH]n2)c(N2CCN(C(C)c3ccccn3)CC2)c1 (stereo not drawn) [Compound A-214, 1-[3-fluoro-5-isobutyl-2-(2H-tetrazol-5-yl)phenyl]-4-[1-(2-pyridyl)ethyl]piperazine] | 38.6 | < 30 | < 30 | – | – | –
3 | CC(C)Cc1cc(F)c(-c2nn[nH]n2)c(N2CCN(C(=O)c3ccccn3)CC2)c1 [Compound A-215, [4-[3-fluoro-5-isobutyl-2-(2H-tetrazol-5-yl)phen-yl]piperazin-1-yl]-(2-pyridyl)meth-anone] | 300 | < 30 | < 30 | – | – | –
4 | CC(C)Cc1cc(F)c(-c2nn[nH]n2)c(N2CCN(C(=O)c3ccccn3)[C@@H](C)C2)c1 [Compound A-216, [(2S)-4-[3-fluoro-5-isobutyl-2-(2H-tetrazol-5-yl)phen-yl]-2-methyl-piperazin-1-yl]-(2-pyridyl)methanone] | 247 | < 30 | < 30 | – | – | –
5 | CC(C)Cc1cc(F)c(-c2nn[nH]n2)c(N2CCN(C(C)c3ccccn3)[C@@H](C)C2)c1 (stereo partly drawn) [Compound A-218, (2S)-4-[3-fluoro-5-isobutyl-2-(2H-tetrazol-5-yl)phenyl]-2-methyl-1-[1-(2-pyridyl)ethyl]piperazine] | 122 | < 30 | < 30 | – | – | –
6 | Cc1cnc(CN2CCN(c3c(-c4nn[nH]n4)ccc(CC(C)C)c3F)CC2)s1 [Compound A-219, 2-[[4-[2-fluoro-3-isobutyl-6-(2H-tetrazol-5-yl)phen-yl]piperazin-1-yl]-methyl]-5-methyl-thiazole] | 681 | < 30 | < 30 | 55200 | – | –
7 | Cc1cnc(CN2CCN(c3cc(CC(C)C)cc(F)c3-c3nn[nH]n3)CC2)s1 [Compound A-220, 2-[[4-[3-fluoro-5-isobutyl-2-(2H-tetrazol-5-yl)phen-yl]piperazin-1-yl]-methyl]-5-methyl-thiazole] | 80.7 | < 30 | < 30 | – | – | –
8 | Cc1cnc(CN2CCN(c3cc(CC(C)C)cnc3-c3nn[nH]n3)CC2)s1 [Compound A-221, 2-((4-(5-isobutyl-2-(2H-tetrazol-5-yl)pyridin-3-yl)piperazin-1-yl)methyl)-5-methylthiazole] | 2740 | < 30 | < 30 | – | – | –
9 | Cc1cnc(CN2CCN(c3cc(CC(C)C)cc(F)c3-c3nn[nH]n3)CC2C)s1 (stereo not drawn) [Compound A-222, 2-[[4-[3-fluoro-5-isobutyl-2-(2H-tetrazol-5-yl)phenyl]-2-methyl-piperazin-1-yl]methyl]-5-methyl-thiazole] | 9.47 | < 30 | < 30 | – | – | –
10 | Cc1cnc(CN2C(C)CN(c3cc(CC(C)C)cc(F)c3-c3nn[nH]n3)CC2C)s1 (stereo not drawn) [Compound A-224, 2-[[4-[3-fluoro-5-isobutyl-2-(2H-tetrazol-5-yl)phen-yl]-2,6-dimethyl-piperazin-1-yl]-methyl]-5-methyl-thiazole] | 92.2 | < 30 | < 30 | – | – | –
11 | Cc1cnc(C(C)N2CCN(c3cc(CC(C)C)cc(F)c3-c3nn[nH]n3)CC2)s1 (stereo not drawn) [Compound A-225, 2-[1-[4-[3-fluoro-5-isobutyl-2-(2H-tetrazol-5-yl)phen-yl]piperazin-1-yl]-ethyl]-5-methyl-thiazole] | 54.1 | – | – | – | * (* <30%) | * (* <30%)
12 | Cc1cnc(C(C)N2CCN(c3cc(CC(C)C)cc(F)c3-c3nn[nH]n3)C[C@@H]2C)s1 (stereo partly drawn) [Compound A-226, 2-[1-[(2S)-4-[3-fluoro-5-isobutyl-2-(2H-tetrazol-5-yl)phenyl]-2-methyl-piperazin-1-yl]ethyl]-5-methyl-thiazole] | 37.2 | < 30 | < 30 | – | – | –
13 | CC(C)Cc1ccc(-c2nn[nH]n2)c(N2CCCN(Cc3cccnn3)CC2)c1 [Compound A-230, 1-[5-isobutyl-2-(2H-tetrazol-5-yl)-phenyl]-4-(pyrid-azin-3-ylmethyl)-1,4-diazepane] | 1230 | < 30 | < 30 | – | – | –
14 | CC(C)Cc1cc(F)c(-c2nn[nH]n2)c(N2CCCN(Cc3cccnn3)CC2)c1 [Compound A-231, 1-[3-fluoro-5-isobutyl-2-(2H-tetrazol-5-yl)phenyl]-4-(pyridazin-3-ylmethyl)-1,4-diazepane] | 368 | < 30 | 30 to 50 | 18900 | – | –
15 | CC(C)Cc1ccc(-c2nn[nH]n2)c(N2CC3CN(Cc4cccnn4)CC3C2)c1 (stereo not drawn) [Compound A-232, 5-[5-isobutyl-2-(2H-tetrazol-5-yl)-phenyl]-2-(pyrid-azin-3-ylmethyl)-1,3,3a,4,6,6a-hexahydropyrrolo-[3,4-c]pyrrole] | 2670 | < 30 | < 30 | – | – | –
16 | CC(C)Cc1cc(F)c(-c2nn[nH]n2)c(N2CC3CN(Cc4cccnn4)CC3C2)c1 (stereo not drawn) [Compound A-233, 5-[3-fluoro-5-isobutyl-2-(2H-tetrazol-5-yl)phenyl]-2-(pyridazin-3-ylmethyl)-1,3,3a,4,6,6a-hexahydropyrrolo[3,4-c]pyrrole] | 1310 | < 30 | < 30 | – | – | –
17 | CC(C)Cc1ccc(-c2nn[nH]n2)c(C2CCN(Cc3cccnn3)CC2)c1 [Compound A-234, 3-[[4-[5-isobutyl-2-(2H-tetrazol-5-yl)-phenyl]-1-piperid-yl]methyl]pyrid-azine] | 2020 | < 30 | < 30 | – | – | –
18 | CC(C)Cc1ccc(-c2nn[nH]n2)c(C2CCN(Cc3cccnn3)C2)c1 (stereo not drawn) [Compound A-235, 3-[[3-[5-isobutyl-2-(2H-tetrazol-5-yl)-phenyl]pyrrolidin-1-yl]methyl]pyrid-azine] | 6890 | < 30 | < 30 | – | – | –
19 | CC(C)Cc1ccc(-c2nn[nH]n2)c(N2CC(NCc3cccnn3)C2)c1 [Compound A-236, 1-(5-isobutyl-2-(2H-tetrazol-5-yl)-phenyl)-N-(pyrid-azin-3-ylmethyl)-azetidin-3-amine] | 1010 | < 30 | < 30 | – | – | –
20 | CC(C)Cc1ccc(-c2nn[nH]n2)c(C(=O)N2CCN(Cc3cccnn3)CC2)c1 [Compound A-239, [5-isobutyl-2-(2H-tetrazol-5-yl)phenyl]-[4-(pyridazin-3-ylmethyl)piperazin-1-yl]methanone] | 2570 | < 30 | < 30 | – | – | –
21 | CCCN(C(=O)c1cccs1)c1ccc2nc(CC)n(CC3CCN(c4ccccc4-c4nn[nH]n4)CC3)c(=O)c2c1 [Compound A-243, N-[2-ethyl-4-oxo-3-[[1-[2-(2H-tetrazol-5-yl)phen-yl]-4-piperidyl]-methyl]quinazolin-6-yl]-N-propyl-thiophene-2-carbox-amide] | 159 | < 30 | > 50 | 11500 | – | –
